Patent US20260166159A1, “KRAS G12D DEGRADATION AGENT, AND PREPARATION METHOD AND USE THEREFOR” (LEADINGTAC PHARMACEUTICAL (SHAOXING) CO., LTD., priority 2022, published 2026)

Columns and labels:
Type in all cases: cell-based
[1] = tested on: KRAS G12D mutant human gastric cancer cell AGS; test: 3D cell proliferation inhibition assay, AGS; settings: 168 h, 7 days, CTG, numeric values
Method in brief: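 Cells seeded at 5×10^2 per well in low-adsorption plates with compounds at 10000–0.026 nM final (0.2% DMSO) and grown 7 days at 37 °C, 5% CO2. Viability by CellTiter-Glo luminescence after 60 min at room temperature; inhibition normalized to DMSO and medium-only controls, IC50 from nonlinear log-concentration fit.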

[2] = tested on: KRAS G12D mutant human pancreatic cancer cell HPAC; test: 3D cell proliferation inhibition assay, HPAC; settings: 168 h, 7 days, CTG
Excerpt: (§1) The inhibitory effects of the compounds on 3D cell proliferation were investigated on KRAS G12D mutant human lung cancer cell A427, KRAS G12D mutant human gastric cancer cell AGS, KRAS G12D mutant human metastatic pancreatic cancer cell AsPc-1, KRAS G12D mutant human pancreatic cancer cell Panc 04.03, KRAS G12D mutant human pancreatic cancer cell HPAC, KRAS G12V mutant human lung squamous cell carcinoma cell SW900, and KRAS WT human gastric cancer cell MKN1. The specific procedures were as follows:
(§2) 10 μL of each compound solution diluted in a gradient was added to corresponding wells of a 96-well low-adsorption microplate (PerkinElmer), so that the final concentrations of the test compounds in the reaction system were in a range of 10000-0.026 nM. The final concentration of DMSO was 0.2%. Then 90 µL of cells were correspondingly seeded into each well to achieve a cell density of 5×10^2 cells/well (the cell density of SW900 was 5×10^1 cells/well, and the cell density of MKN1 was 1×10^3 cells/well). In addition to test wells for the test compounds, both a DMSO control well and a medium control well were set, with the DMSO control well containing DMSO and cells and the medium well containing only a medium. After the sample loading, the 96-well low-adsorption microplate was incubated in an incubator at 37° C. with 5% carbon dioxide for 7 days. After 7 days, the microplate was taken out, and 100 μL of CTG reagent (Promega) was added to each well. The plate was incubated at room temperature for 60 min and read on a microplate reader EnVision by the chemiluminescence program. The inhibition rates of the compounds at each concentration were calculated using the formula for the percentage inhibition of cell proliferation: inhibition rate %=(mean value of DMSO control group−single concentration reading value of compound)/(mean value of DMSO control group−mean value of medium control group)×100. Then non-linear curve fittings for logarithmic concentration-inhibition rate were performed by GraphPad Prism 8, and the IC50 values of the compounds were obtained (Table 5).

[3] = tested on: KRAS G12D mutant human metastatic pancreatic cancer cell AsPc-1; test: 3D cell proliferation inhibition assay, AsPc-1; settings: ASPC1, 168 h, AsPc-1, 7 days, CTG, numeric values
Excerpt: as §1, §2

[4] = tested on: KRAS G12D mutant human pancreatic cancer cell Panc 04.03; test: 3D cell proliferation inhibition assay, Panc 04.03; settings: 168 h, Panc 04.03, 7 days, CTG, numeric values
Excerpt: as §1, §2

**Q.** For `C#Cc1c(F)ccc2cc(O)cc(-c3ncc4c(N5CC6CCC(C5)N6)nc(OCC5(CN6CCN(CC7CCC8(CC7)CCN(C(=O)c7cc(N9CCC(=O)NC9=O)c(C)cc7F)CC8)CC6)CC5)nc4c3F)c12` [Example 104, 1-(5-(9-((4-((1-(((4-(3,8-diazabicyclo[3.2.1]octan-3-yl)-7-(8-ethynyl-7-fluoro-3-hydroxynaphthalen-1-yl)-8-fluoropyrido[4,3-d]pyrimidin-2-yl)oxy)methyl)cyclopropyl)methyl)piperazin-1-yl)methyl)-3-azaspiro[5.5]undecane-3-carbonyl)-4-fluoro-2-methylphenyl)dihydropyrimidine-2,4(1H,3H)-dione], which IC50 [1] is on record?
**A.** 2.49 nM

**Q.** And the IC50 [2]?
**A.** 5.32 nM

**Q.** What about the IC50 [3] of the same compound?
**A.** 1.83 nM

**Q.** What about the IC50 [4] of the same compound?
**A.** 31.3 nM

**Q.** With `C#Cc1c(F)ccc2cc(O)cc(-c3ncc4c(N5CC6CCC(C5)N6)nc(OCC5(CN6CCN(CC7CCC8(CCN(C(=O)c9ccc(C)c(N%10CCC(=O)NC%10=O)c9)CC8)OC7)CC6)CC5)nc4c3F)c12` (centres unmarked) [Example 151, 1-(5-(3-((4-((1-(((4-(3,8-diazabicyclo[3.2.1]octan-3-yl)-7-(8-ethynyl-7-fluoro-3-hydroxynaphthalen-1-yl)-8-fluoropyrido[4,3-d]pyrimidin-2-yl)oxy)methyl)cyclopropyl)methyl)piperazin-1-yl)methyl)-1-oxa-9-azaspiro[5.5]undecane-9-carbonyl)-2-methylphenyl)dihydropyrimidine-2,4(1H,3H)-dione] as the compound, how does the IC50 [1] read?
**A.** 6.82 nM

**Q.** What about the IC50 [2] of the same compound?
**A.** 6.92 nM

**Q.** What about the IC50 [3] of the same compound?
**A.** 3.86 nM

**Q.** And the IC50 [4]?
**A.** 23.1 nM
